Reference: US9642831B2, “Substituted chromanes and method of use” (AbbVie S.á.r.l., priority 2014, dated 2017)

Target: F508delCFTR (Homo sapiens, UniProt P13569, DEL508-508)
Experiment: Cell Surface Expression-Horse Radish Peroxidase (CSE-HRP) assay
Format: cell-based
Parameters: expressed in transfected cells; host or cells: CFBE41o- human lung derived epithelial cell line, doxycycline-inducible
Settings: CFBE4lo-F508delCFTR-HRP cells; for EC50: 18-24 hours at 33° C., 8-point curve, highest concentration 20 μM, luminescence readout; for Emax: maximum % activity at any tested concentration, normalized to on-plate positive control (3 μM Example 1)
Method in brief: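 Following 18-24 h compound exposure at 33° C. Expression was doxycycline-induced beforehand. % activity versus DMSO and a 3 μM corrector control gave maximum activity and EC50 from a variable-Hill sigmoidal fit.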

Chain of F508delCFTR (P13569 with tags, fused parts or gaps DEL508-508): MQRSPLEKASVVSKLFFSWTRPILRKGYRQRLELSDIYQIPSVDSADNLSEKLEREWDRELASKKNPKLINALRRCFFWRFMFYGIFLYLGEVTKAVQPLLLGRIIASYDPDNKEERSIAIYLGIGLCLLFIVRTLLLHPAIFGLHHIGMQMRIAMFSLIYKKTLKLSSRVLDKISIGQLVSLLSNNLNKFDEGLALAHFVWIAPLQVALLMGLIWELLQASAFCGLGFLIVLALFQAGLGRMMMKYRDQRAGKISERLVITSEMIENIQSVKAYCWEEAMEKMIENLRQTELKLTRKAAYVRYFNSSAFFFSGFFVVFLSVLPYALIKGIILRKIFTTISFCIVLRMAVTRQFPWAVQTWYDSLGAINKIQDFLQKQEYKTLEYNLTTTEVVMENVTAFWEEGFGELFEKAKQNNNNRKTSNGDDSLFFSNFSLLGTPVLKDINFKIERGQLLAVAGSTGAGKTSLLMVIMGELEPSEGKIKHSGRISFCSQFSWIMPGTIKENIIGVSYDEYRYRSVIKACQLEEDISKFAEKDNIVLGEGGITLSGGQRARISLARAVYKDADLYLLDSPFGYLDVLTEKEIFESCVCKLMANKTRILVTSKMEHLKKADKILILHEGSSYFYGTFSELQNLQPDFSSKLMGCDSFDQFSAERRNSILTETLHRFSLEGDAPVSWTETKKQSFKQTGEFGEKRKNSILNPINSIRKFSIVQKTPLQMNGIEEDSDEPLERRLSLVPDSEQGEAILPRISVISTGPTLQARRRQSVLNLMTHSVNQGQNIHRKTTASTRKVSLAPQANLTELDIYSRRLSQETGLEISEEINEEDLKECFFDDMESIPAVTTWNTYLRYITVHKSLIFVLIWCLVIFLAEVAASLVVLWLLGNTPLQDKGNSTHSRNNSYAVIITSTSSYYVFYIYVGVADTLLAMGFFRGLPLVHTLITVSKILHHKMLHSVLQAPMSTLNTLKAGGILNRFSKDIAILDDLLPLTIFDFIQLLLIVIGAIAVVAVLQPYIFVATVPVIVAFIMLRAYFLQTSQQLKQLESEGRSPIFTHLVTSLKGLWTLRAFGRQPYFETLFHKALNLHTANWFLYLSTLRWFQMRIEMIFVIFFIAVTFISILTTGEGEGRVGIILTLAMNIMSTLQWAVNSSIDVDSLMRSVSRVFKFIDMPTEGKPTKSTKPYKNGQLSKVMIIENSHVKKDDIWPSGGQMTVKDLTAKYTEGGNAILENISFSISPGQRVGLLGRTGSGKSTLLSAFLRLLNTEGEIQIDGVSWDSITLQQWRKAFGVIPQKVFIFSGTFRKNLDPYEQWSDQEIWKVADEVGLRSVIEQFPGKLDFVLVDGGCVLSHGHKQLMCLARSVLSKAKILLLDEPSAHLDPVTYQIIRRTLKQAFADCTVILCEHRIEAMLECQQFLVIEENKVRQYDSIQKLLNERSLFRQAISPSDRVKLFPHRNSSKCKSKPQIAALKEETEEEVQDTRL

Question: What does the source list for `COCCOc1ccc2c(c1)O[C@@H](c1cccc(C(=O)O)c1)C[C@H]2NC(=O)C1(c2ccc3c(c2)OC(F)(F)O3)CC1` [Example 97, 3-[(2R,4R)-4-({[1-(2,2-difluoro-1,3-benzodioxol-5-yl)cyclopropyl]carbonyl}amino)-7-(2-methoxyethoxy)-3,4-dihydro-2H-chromen-2-yl]benzoic acid]?
Answer: EC50: 0.38 µM; Emax: 90%

Question: What does the source list for `COc1ccc2c(c1)O[C@@H](C(=O)N(C)C1COC1)C[C@H]2NC(=O)C1(c2ccc3c(c2)OC(F)(F)O3)CC1` (racemic) [Example 176, rac-(2R,4R)-4-({[1-(2,2-difluoro-1,3-benzodioxol-5-yl)cyclopropyl]carbonyl}amino)-7-methoxy-N-methyl-N-(oxetan-3-yl)-3,4-dihydro-2H-chromene-2-carboxamide]?
Answer: EC50: 9.63 µM; Emax: 30%

Question: With `COc1ccc2c(c1)OCCC2NC(=O)C1(c2ccc3c(c2)OC(F)(F)O3)CC1` (stereo not drawn) [Example 59, 1-(2,2-difluoro-1,3-benzodioxol-5-yl)-N-(7-methoxy-3,4-dihydro-2H-chromen-4-yl)cyclopropanecarboxamide] as the compound, how does the EC50 read?
Answer: The EC50 was 3.66 µM.

Question: And the Emax?
Answer: Its Emax is 101%.

Question: Which results are given for `O=C(NC1CC2(CNC2)Oc2cc(F)ccc21)C1(c2ccc3c(c2)OC(F)(F)O3)CC1` (stereo not drawn) [Example 103, 1-(2,2-difluoro-1,3-benzodioxol-5-yl)-N-(7′-fluoro-3′,4′-dihydrospiro[azetidine-3,2′-chromen]-4′-yl)cyclopropanecarboxamide]?
Answer: EC50: 8.53 µM; Emax: 28%

Question: `O=C(NC1c2ccccc2OCC1Cc1ccccc1)C1(c2ccc3c(c2)OC(F)(F)O3)CC1` (stereo not drawn) [Example 73, N-(3-benzyl-3,4-dihydro-2H-chromen-4-yl)-1-(2,2-difluoro-1,3-benzodioxol-5-yl)cyclopropanecarboxamide] was tested. Which EC50 did it give?
Answer: Its EC50 is 7.63 µM.

Question: And the Emax?
Answer: The Emax was 57%.

Question: With `COc1ccc2c(c1)O[C@@H](C(=O)NCC(C)(C)O)C[C@@H]2NC(=O)C1(c2ccc3c(c2)OC(F)(F)O3)CC1` (racemic) [Example 188, rac-(2R,4S)-4-({[1-(2,2-difluoro-1,3-benzodioxol-5-yl)cyclopropyl]carbonyl}amino)-N-(2-hydroxy-2-methylpropyl)-7-methoxy-3,4-dihydro-2H-chromene-2-carboxamide] as the compound, how does the EC50 read?
Answer: The EC50 was 4.65 µM.

Question: What about the Emax of the same compound?
Answer: Its Emax is 43%.

Question: Which results are given for `O=C(NC1C[C@H](c2cccc(CO)c2)Oc2ccccc21)C1(c2ccc3c(c2)OC(F)(F)O3)CC1` (stereo partly drawn) [Example 58, 1-(2,2-difluoro-1,3-benzodioxol-5-yl)-N-{(2R)-2-[3-(hydroxymethyl)phenyl]-3,4-dihydro-2H-chromen-4-yl}cyclopropanecarboxamide]?
Answer: EC50: 2.54 µM; Emax: 101%

Question: With `COC(=O)c1cccc([C@H]2C[C@@H](NC(=O)C3(c4ccc5c(c4)OC(F)(F)O5)CC3)c3ccc(Cl)nc3O2)c1` (racemic) [Example 112, methyl rac-3-[(2R,4R)-7-chloro-4-({[1-(2,2-difluoro-1,3-benzodioxol-5-yl)cyclopropyl]carbonyl}amino)-3,4-dihydro-2H-pyrano[2,3-b]pyridin-2-yl]benzoate] as the compound, how does the EC50 read?
Answer: Its EC50 is ≥ 20 µM.

Question: And the Emax?
Answer: Its Emax is 5%.

Question: Which results are given for `CCOC(=O)c1csc([C@@H]2C[C@H](NC(=O)C3(c4ccc5c(c4)OC(F)(F)O5)CC3)c3ccc(OC)cc3O2)n1` (stereo in doubt) [Example 157, ethyl rel-2-[(2S,4S)-4-({[1-(2,2-difluoro-1,3-benzodioxol-5-yl)cyclopropyl]carbonyl}amino)-7-methoxy-3,4-dihydro-2H-chromen-2-yl]-1,3-thiazole-4-carboxylate]?
Answer: EC50: 1.52 µM; Emax: 77%

Question: What does the source list for `CCOC(=O)c1csc([C@@H]2C[C@H](NC(=O)C3(c4ccc5c(c4)OC(F)(F)O5)CC3)c3ccccc3O2)n1` (stereo in doubt) [Example 140, ethyl rel-2-[(2S,4S)-4-({[1-(2,2-difluoro-1,3-benzodioxol-5-yl)cyclopropyl]carbonyl}amino)-3,4-dihydro-2H-chromen-2-yl]-1,3-thiazole-4-carboxylate]?
Answer: EC50: 2.28 µM; Emax: 53%

Question: Which EC50 does the source give for `O=C(O)c1csc([C@@H]2C[C@H](NC(=O)C3(c4ccc5c(c4)OC(F)(F)O5)CC3)c3ccccc3O2)n1` (stereo in doubt) [Example 143, rel-2-[(2S,4S)-4-({[1-(2,2-difluoro-1,3-benzodioxol-5-yl)cyclopropyl]carbonyl}amino)-3,4-dihydro-2H-chromen-2-yl]-1,3-thiazole-4-carboxylic acid] here?
Answer: Its EC50 is 8.5 µM.

Question: And the Emax?
Answer: Its Emax is 27%.

Question: What does the source list for `COc1ccc2c(c1)O[C@@H](C(=O)N1CCC(C(=O)O)C1)C[C@@H]2NC(=O)C1(c2ccc3c(c2)OC(F)(F)O3)CC1` (mixture of isomers) [Example 201, rac-1-{[(2R,4S)-4-({[1-(2,2-difluoro-1,3-benzodioxol-5-yl)cyclopropyl]carbonyl}amino)-7-methoxy-3,4-dihydro-2H-chromen-2-yl]carbonyl}pyrrolidine-3-carboxylic acid]?
Answer: EC50: 7.92 µM; Emax: 35%

Question: What does the source list for `CC1(C)C[C@@H](NC(=O)C2(c3ccc4c(c3)OC(F)(F)O4)CC2)c2ccc(F)c(Cl)c2O1` [Example 90, N-[(4R)-8-chloro-7-fluoro-2,2-dimethyl-3,4-dihydro-2H-chromen-4-yl]-1-(2,2-difluoro-1,3-benzodioxol-5-yl)cyclopropanecarboxamide]?
Answer: EC50: 3.44 µM; Emax: 42%

Question: With `Cc1ccc2c(c1)O[C@@H](c1cccc(C(=O)N3CCCC(CO)C3)c1)C[C@H]2NC(=O)C1(c2ccc3c(c2)OC(F)(F)O3)CC1` (stereo partly drawn) [Example 52, 1-(2,2-difluoro-1,3-benzodioxol-5-yl)-N-[(2R,4R)-2-(3-{[3-(hydroxymethyl)piperidin-1-yl]carbonyl}phenyl)-7-methyl-3,4-dihydro-2H-chromen-4-yl]cyclopropanecarboxamide] as the compound, how does the EC50 read?
Answer: Its EC50 is 1.01 µM.

Question: What about the Emax of the same compound?
Answer: The Emax was 93%.

Question: For `COc1ccc2c(c1)O[C@@H](C(=O)NC1CCS(=O)(=O)CC1)C[C@H]2NC(=O)C1(c2ccc3c(c2)OC(F)(F)O3)CC1` (racemic) [Example 172, rac-(2R,4R)-4-({[1-(2,2-difluoro-1,3-benzodioxol-5-yl)cyclopropyl]carbonyl}amino)-N-(1,1-dioxidotetrahydro-2H-thiopyran-4-yl)-7-methoxy-3,4-dihydro-2H-chromene-2-carboxamide], which EC50 is on record?
Answer: The EC50 was 4.08 µM.

Question: What about the Emax of the same compound?
Answer: The Emax was 66%.

Question: For `COC(=O)c1cccc([C@H]2C[C@H](NC(=O)C3(c4ccc5c(c4)OC(F)(F)O5)CC3)c3ccc(C)cc3O2)c1` [Example 17, methyl 3-[(2R,4S)-4-({[1-(2,2-difluoro-1,3-benzodioxol-5-yl)cyclopropyl]carbonyl}amino)-7-methyl-3,4-dihydro-2H-chromen-2-yl]benzoate], which EC50 is on record?
Answer: Its EC50 is 2.64 µM.

Question: And the Emax?
Answer: The Emax was 78%.

Question: With `COc1ccc2c(c1)O[C@@H](C(=O)N(C)CC(O)c1ccccc1)C[C@H]2NC(=O)C1(c2ccc3c(c2)OC(F)(F)O3)CC1` (mixture of isomers) [Example 168, rac-(2R,4R)-4-({[1-(2,2-difluoro-1,3-benzodioxol-5-yl)cyclopropyl]carbonyl}amino)-N-(2-hydroxy-2-phenylethyl)-7-methoxy-N-methyl-3,4-dihydro-2H-chromene-2-carboxamide] as the compound, how does the EC50 read?
Answer: The EC50 was 1.16 µM.

Question: What about the Emax of the same compound?
Answer: Its Emax is 67%.

Question: Which EC50 does the source give for `O=C(O)c1cccc([C@H]2C[C@H](NC(=O)C3(c4ccc5c(c4)OC(F)(F)O5)CC3)c3ccccc3O2)c1` [Example 10, 3-[(2R,4S)-4-({[1-(2,2-difluoro-1,3-benzodioxol-5-yl)cyclopropyl]carbonyl}amino)-3,4-dihydro-2H-chromen-2-yl]benzoic acid] here?
Answer: The EC50 was 4.1 µM.

Question: And the Emax?
Answer: The Emax was 112%.

Question: How did the EC50 turn out when `COc1ccc2c(c1)O[C@@H](C(=O)N(C)CC(O)c1ccccc1)C[C@@H]2NC(=O)C1(c2ccc3c(c2)OC(F)(F)O3)CC1` (mixture of isomers) [Example 185, rac-(2R,4S)-4-({[1-(2,2-difluoro-1,3-benzodioxol-5-yl)cyclopropyl]carbonyl}amino)-N-(2-hydroxy-2-phenylethyl)-7-methoxy-N-methyl-3,4-dihydro-2H-chromene-2-carboxamide] was run?
Answer: The EC50 was 0.64 µM.

Question: What about the Emax of the same compound?
Answer: The Emax was 77%.

Question: `Cc1ccc2c(c1)O[C@@H](c1cccc(C(=O)O)c1)C[C@H]2NC(=O)C1(c2ccc3c(c2)OC(F)(F)O3)CC1` [Example 16, 3-[(2R,4R)-4-({[1-(2,2-difluoro-1,3-benzodioxol-5-yl)cyclopropyl]carbonyl}amino)-7-methyl-3,4-dihydro-2H-chromen-2-yl]benzoic acid] was tested. Which EC50 did it give?
Answer: The EC50 was 0.37 µM.

Question: And the Emax?
Answer: Its Emax is 108%.

Question: How did the EC50 turn out when `O=C(NC1CC(c2ccc(C(F)(F)F)cc2)Oc2ccccc21)C1(c2ccc3c(c2)OC(F)(F)O3)CC1` (stereo not drawn) [Example 64, 1-(2,2-difluoro-1,3-benzodioxol-5-yl)-N-{2-[4-(trifluoromethyl)phenyl]-3,4-dihydro-2H-chromen-4-yl}cyclopropanecarboxamide] was run?
Answer: The EC50 was 1.61 µM.

Question: What about the Emax of the same compound?
Answer: The Emax was 78%.

Question: How did the EC50 turn out when `O=C(O)C1CC(C2CC(NC(=O)C3(c4ccc5c(c4)OC(F)(F)O5)CC3)c3ccccc3O2)C1` (stereo not drawn) [Example 152, 3-[4-({[1-(2,2-difluoro-1,3-benzodioxol-5-yl)cyclopropyl]carbonyl}amino)-3,4-dihydro-2H-chromen-2-yl]cyclobutanecarboxylic acid] was run?
Answer: Its EC50 is 6.35 µM.

Question: What about the Emax of the same compound?
Answer: Its Emax is 59%.

Question: How did the EC50 turn out when `COc1ccc2c(c1)O[C@@H](C1CC1)C[C@@H]2NC(=O)C1(c2ccc3c(c2)OC(F)(F)O3)CC1` (racemic) [Example 41, rac-N-[(2R,4S)-2-cyclopropyl-7-methoxy-3,4-dihydro-2H-chromen-4-yl]-1-(2,2-difluoro-3-benzodioxol-5-yl)cyclopropanecarboxamide] was run?
Answer: The EC50 was 2.58 µM.

Question: What about the Emax of the same compound?
Answer: Its Emax is 73%.

Question: How did the EC50 turn out when `COc1ccc2c(c1)O[C@@H](C(=O)N1CCN(CCO)CC1)C[C@@H]2NC(=O)C1(c2ccc3c(c2)OC(F)(F)O3)CC1` (racemic) [Example 187, rac-1-(2,2-difluoro-1,3-benzodioxol-5-yl)-N-[(2R,4S)-2-{[4-(2-hydroxyethyl)piperazin-1-yl]carbonyl}-7-methoxy-3,4-dihydro-2H-chromen-4-yl]cyclopropanecarboxamide] was run?
Answer: The EC50 was 1.95 µM.

Question: What about the Emax of the same compound?
Answer: The Emax was 76%.
